The values that follow come from US6875786B2, “Thrombopoietin mimetics” (SmithKline Beecham Corporation, priority 2001, dated 2005).

As a reminder, the EC50 is the concentration at which the effect is half-maximal. The low end stands for higher potency in that assay, the high end for lower potency in that assay.

The test system of this assay is 32D-mpl cells. Description: proliferation of 32D-mpl cells. Type of assay: cell-based. As for the experimental part:
The compound of Example 1, promoted the proliferation of 32D-mpl cells at a concentration of 0.03 to 30 uM.

SMILES strings stand for the structures.

Consider `CC1=NN(c2ccc(C)c(C)c2)C(=O)C1=CNc1cccc(-c2cccc(C(=O)O)c2)c1O` [Example 1, 3′-{[1-(3.4-Dimethylphenyl)-3-methyl-5-oxo-1,5-dihydropyrazol-4-ylidenemethyl]amino}-2′-hydroxybiphenyl-3-carboxylic Acid], for which the EC50 turned out to be 670 nM. Moreover, where the note is “relative to TPO maximum”, the “% TPOmax” value amounted to 85%.
